One data set is described as follows: in vitro. Particulars: male, Sprague-Dawley, rat. The protocol: (§1) Identification of toxicity markers was performed by microarray analysis and by the AlamarBlue® assay, a classical measure of cytotoxicity. The AlamarBlue® assay was performed in triplicate.
(§2) The source of the primary rat hepatocytes was Sprague Dawley Outbred CDs Rats (CRL:CD®[SD] IGS BR, Charles River Laboratories). […] Primary rat hepatocytes were received the day after the cells were removed from the animals. After arrival, the cells, the cells were incubated overnight (˜15 hrs) before the toxin was added to the cultures. […] Toxin or vehicle was administered to hepatocyte cultures as follows. For each treatment, i.e., vehicle alone, vehicle+toxin at low dose, or vehicle+toxin at high dose, cells were harvested after 3, 6 and 24-hour incubations with the toxin solution or with the vehicle.
(§3) The AlamarBlue® assay was performed as follows, using only the 24-hour time point samples. • 1. […] The culture medium (HIM) was removed from each well and replaced with 500 μl of fresh HIM following arrival of the cells, and the cells were incubated overnight (approximately 15 hrs) at 37° C., 5% CO2. • 3. The next day, the HIM was removed and 500 μl of the medium containing either vehicle or a dose of toxin was added. • 4. Lysis solution was used as a negative control. 450 μl medium+50 μl 9% Triton X100 were added to each of 3 wells containing cells, for a final Triton concentration of 1%. • 5. The cells in all wells were incubated for 24 hours at 37° C., 5% CO2. • 6. HIM medium was removed, and a solution containing 500 μl of fresh HIM medium+50 μl AlamarBlue® (BioSource International, Inc., Cat. No. DAL1100) was added to each well. • 7. The cells were incubated at 37° C., 5% CO2 for 2 hours. • 8. 100 μl medium was removed from each well of the 24-well plate and added to a well of a 96-well plate. […] Alternatively, two absorbance readings can be measured for the oxidized (600 nm) and the reduced (570 nm) form of AlamarBlueg. After obtaining absorbance readings, results were calculated according to the manufacturer's protocol provided in the product description. • 9. The data were evaluated to determine whether or not the toxin reduced cell viability. If so, the dose of the toxin that reduced cell viability by ˜10-20% was determined. Collection of RNA from Rat Hepatocytes

Data set [1] concerns patients. As to conditions: human, in vivo; cited from earlier work.
In data set [2] the test system is male Sprague Dawley (SD) rats. As to conditions: within 48 hours post dose; 0.1, 1, 2, 3, 4 mL/kg ip; […] po; cited from earlier work.
The test system of another data set is primary rat hepatocytes. Nature of the data set: AlamarBlue cell viability assay. As to conditions: 24 hours. The protocol: as §1, §2, §3
For orientation: The colour change of resazurin is a common sign of viable cells or microbes.

The test system of data set [3] is rats. Briefly: Lovastatin dosing of rats, liver tissue examination. The class given is in vivo, rat.
The conditions of data set [4]: oral doses; cited from earlier work.
Data set [5] has as its system patients. As to conditions: 180 reported cases; cited from earlier work.
The test system of data set [6] is rats. Nature of the data set: AY-25329 14 day rat study: serum chemistry and light microscopy. The format is in vivo. The source says:
The present inventors have noted indications of liver and renal effects of AY-25329 by changes in serum chemistry. […] Most of these markers of renal and liver dysfunction remained altered throughout the 14 day study period.

Data on 21 molecules can be found in patent publication US7469185B2, “Primary rat hepatocyte toxicity modeling” (Ocimum Biosolutions, Inc., priority 2002, dated 2008).

As usually defined, the viability is a read-out of living cells in per cent, often relative to untreated cells.

Bounds are passed on as bounds.

In the data set “in vitro”, `CC(=O)O[C@]1(C(C)=O)CC[C@H]2[C@@H]3C=C(Cl)C4=CC(=O)[C@@H]5C[C@@H]5[C@]4(C)[C@H]3CC[C@@]21C` [Cyproterone acetate] yielded a viability at 24 h, 40 uM of about 100% and a viability at 24 h, 400 uM of 65 to 70%.
Molecule `CCCC(CCC)C(=O)O` [Valproate, n-dipropylacetic acid] gave a viability at 24 h, 0.4 mg/ml in the data set “in vitro” of about 100%. Moreover, the “patients with elevated levels of hepatic enzymes” value in the data set with patients [1] was “about 40%”.
In the data set “in vitro”, `CCOC(=O)C(C)(C)Oc1ccc(Cl)cc1` [Clofibrate] came in with a viability at 24 h, 0.5 mM of about 100% and a viability at 24 h, 5 mM of 80 to 85%.
In the data set “in vitro”, `CN(C)CCCN1c2ccccc2Sc2ccc(Cl)cc21` [Chlorpromazine] came in with a viability at 24 h, 3 uM of about 100%.
Take `Cc1ccc(C)c(OCCCC(C)(C)C(=O)O)c1` [Gemfibrozil, gemfibrozil]: in “in vitro”, the viability at 24 h, 0.3 mM is about 100% and the viability at 24 h, 3 mM was about 50%.
In “in vitro”, `CN(Cc1cnc2nc(N)nc(N)c2n1)c1ccc(C(=O)N[C@@H](CCC(=O)O)C(=O)O)cc1` [Methotrexate] came in with a viability at 24 h, 1 mM of about 100% and a viability at 24 h, 10 mM of about 90%.
On to `NC(=O)N1c2ccccc2C=Cc2ccccc21` [Carbamazepine], for which, in the data set “in vitro”, the viability at 24 h, 0.01 mM is about 100% and the viability at 24 h, 1 mM is about 90%.
Consider `CC/C(=C(\c1ccccc1)c1ccc(OCCN(C)C)cc1)c1ccccc1` [Tamoxifen], for which, in “in vitro”, the viability at 24 h, 4 uM was about 100% and the viability at 24 h, 40 uM was about 45%.
Take `ClC(Cl)(Cl)Cl` [CCl4, carbon tetrachloride]: the “ALT and AST peak levels, fold increases” value in data set [2] is listed as 5-10 fold. In “in vitro”, this molecule registered a viability at 24 h, 0.1 mM of about 100% and a viability at 24 h, 10 mM of 80 to 85%.
Consider `COc1ccc2c(c1)c(CC(=O)O)c(C)n2C(=O)c1ccc(Cl)cc1` [Indomethacin], for which, in the data set “in vitro”, the viability at 24 h, 0.1 mM was about 100% and the viability at 24 h, 1 mM was in the range of 85 to 90%.
Consider `O=C(O)c1cc(-c2ccc(F)cc2F)ccc1O` [Diflunisal], for which, in the data set “in vitro”, the viability at 24 h, 30 uM was about 100% and the viability at 24 h, 300 uM is 85 to 90%.
Consider `S=C=Nc1cccc2ccccc12` [ANIT, α-naphthylisothiocyanate], for which, in “in vitro”, the viability at 24 h, 25 uM is about 100% and the viability at 24 h, 250 uM was about 60%.
In the data set “in vitro”, `CCC1(c2ccccc2)C(=O)NC(=O)NC1=O` [Phenobarbital] came in with a viability at 24 h, 0.8 mM of about 100% and a viability at 24 h, 8 mM of over 95%.
In “in vitro”, `Cc1cccc(Nc2cc(Cl)nc(SCC(=O)O)n2)c1C` [Wy-14643] registered a viability at 24 h, 10 uM of about 100% and a viability at 24 h, 100 uM of about 90%.
Turning to `NN` [Hydrazine], in the data set “in vitro”, the viability at 24 h, 0.1 mM lay in the range of 90 to 95% and the viability at 24 h, 1 mM lay within 80 to 85%.
Regarding `CN(C)N=O` [DMN, dimethylnitrosamine], the “% viability by AlamarBlue test” value in the data set on primary rat hepatocytes (high dose 100 mM) is reported as ~80-85%; with primary rat hepatocytes (low dose 1 mM) it was about 100%.
`C#C[C@]1(O)CC[C@H]2[C@@H]3CCc4cc(O)ccc4[C@H]3CC[C@@]21C` [17α-ethinylestradiol]: the “% viability by AlamarBlue test” value in the data set on primary rat hepatocytes (high dose 100 uM) is reported as about 80%; in the data set with primary rat hepatocytes (low dose 10 uM), about 100%.
With `CC[C@H](C)C(=O)O[C@H]1C[C@@H](C)C=C2C=C[C@H](C)[C@H](CC[C@@H]3C[C@@H](O)CC(=O)O3)[C@H]21` [Lovastatin], in “in vitro”, the viability at 24 h, 0.1 mM is about 100% and the viability at 24 h, 1 mM is about 100%. In addition, in the data set on rats [3] (9 or 90 mg/kg twice a day, after 6 or after 24 hours), the “effects in liver tissue” value is “no effects were noted”. Further, the “effects in liver cells” value with rats [3] (after 14 days of treatment at the higher dosage (90 mg/kg twice a day)) was “abnormal vacuolization of the cytoplasm”. In data set [4], the “metabolites excreted in the urine” value is “less than 13%”.
In the data set “in vitro”, `O=C(O)Cc1ccccc1Nc1c(Cl)cccc1Cl` [Diclofenac] returned a viability at 24 h, 55 uM of about 100% and a viability at 24 h, 550 uM of about 70%. Further, the “jaundice, share of the symptomatic patients” value with patients [5] is 75%.
In the data set “in vitro”, `CN(C)[C@@H]1C(O)=C(C(N)=O)C(=O)[C@@]2(O)C(O)=C3C(=O)c4c(O)cccc4[C@@](C)(O)[C@H]3C[C@@H]12` [Tetracycline] showed a viability at 24 h, 0.1 mM of about 100% and a viability at 24 h, 1 mM of 85 to 90%.
With `O=C(CCN1CCN2CCCC2C1)N1c2ccccc2Sc2ccc(Cl)cc21` (stereo not shown) [AY-25329], in the data set “in vitro”, the viability at 24 h, 5 uM is about 100% and the viability at 24 h, 50 uM was about 90%. In the data set on rats [6] (6 and 24 hours), the “light microscopic analysis, effects in the liver” value was “increased number of hepatocytic mitotic figures and decreased glycogen content”. Besides, the “findings after repeated dosing” value in the data set on rats [6] (14 days of repeated dosing, 250 mg/kg/day) is “nephrosis and alterations in the peripheral lobes of the liver and in the cytoplasm of hepatocytes”. The “serum levels of creatinine, BUN, ALT, triglycerides and cholesterol” value in the data set on rats [6] (as early as 6 hours after the first dose) was “statistically significant increases”.
